According to patent US20250092395A1, “A GLUN2D INHIBITOR FOR USE IN THE TREATMENT OR RELAPSE PREVENTION OF A DEPRESSIVE EPISODE” (priority 2022, published 2025):
Entries after “also recorded” stand apart in the source; their conditions may differ. Where a name gives a salt, the structure may show the parent alone.

What was measured:
CDM mice = test: Nose-poke sucrose preference test in CDM mice; assay type: in vivo; settings: CDM mice, POST1 and POST2 nights
Excerpt: Behavioral Readout: After the treatment intervention, animals were either tested in an additional swim session (test day) to measure immobility time or tested in the InteliCage using the Nose-pokes sucrose preference test. For the assessment of the immobility time, mice were videotaped and two independent raters who were blinded to the experimental group analyzed the videos. Immobility time was defined as the cumulative time that the animals spend stationary with only enough movements of the tails or the forepaws to keep the head above the water surface. No distance is actively travelled except for passive floating, no directed movement of the front paws observed and the body of the animal mostly oriented parallel to the walls of the cylinder.
The IntelliCage system (TSE Systems) allows simultaneous analysis of spontaneous and exploratory behavior, activity pattern, and drinking preference of up to 16 group-housed mice implanted with radio-frequency identification (RFID) transponders. The unit consists of an open common space with 4 red shelters in the center and 4 recording corners. Mice have free access to food in the middle of the IntelliCage, water is available in the corners behind remote-controlled guillotine doors. Each corner is equipped with 2 drinking bottles and permits the visit of only one mouse at the same time. The scored parameters—the nosepokes toward the doors and the licks on the bottles—were monitored by a PC-based tracking software (IntelliCage Plus, TSE Systems). Initially, the mice were allowed to adapt to the IntelliCage for at least 7 days with water available ad libitum in all corners. Then for 3 days the animals were habituated to the sucrose taste: in each corner one of the bottles was filled with 1% sucrose solution and the other one with water. Both doors in the corner were open allowing free choice between the bottles. Next, a nosepoke adaptation period was carried out, where all doors were closed and the mice had to perform a nosepoke to open them. The opened door closes automatically after 5 s of drinking. In all tasks involving sucrose-filled bottles, the positions of the bottles were exchanged every 24 h. The Nosepoke SPT protocol was used (see Alboni et al.) for measurement of sucrose preference with gradually increasing effort (number of nosepokes) to reach the sucrose bottles for a short period of time (12 h). In this paradigm each door opens in response to a nosepoke and closes after 5 s licking. The number of nosepokes needed to open a door to a side with a sucrose containing bottle gradually increases (1, 2, 3, 4, 5, 6, 8, 10, 12, 16, 20, 24) after every 8 sucrose licking sessions. For each bottle the number of licks was recorded and the averaged sucrose preference was calculated as percentage of the total number of licks.

[1] = system: CA3-CA1 synapse in hippocampal brain slices of CDM mice; test: aLTP/aLTD inducibility in hippocampal brain slices of CDM mice after in vivo treatment; settings: for stress-induced LTP blockade, reversal: NAB-14 in vivo
Experimental: Animals were preoxygenated in a 100% oxygen atmosphere for 5 min before cervical dislocation and decapitated according to national and institutional guidelines. Transverse 300 […] were cut from hippocampus with a Vibratome (VT1200, Leica, Japan). Slices were prepared in artificial cerebrospinal fluid (ACSF) containing (in mmol/I): 125 NaCl, 25 NaHCO3, 1.25 NaH2PO4, 2.5 KCL, 1 MgCl2, 27 Glucose, 2 CaCl2) bubbled with carbogen (95% O2, 5% CO2).
After 20 min resting time at 35° C., slices were kept at room temperature in aCSF and transferred into the recording chamber (volume approx. 2-3 ml) and continuously superfused with aCSF (rate approx. 5-10 ml/min-). Differential interference contrast video microscopy was used to identify location of CA1 pyramidal neurons (Zeiss Axioskop 2 FS plus, Zeiss Microscopy, Germany). Beside optical identification neurons were classified according to their characteristic firing frequency adaptation to long depolarising current pulses. Borosilicate glass tubes (2.0 mm outer diameter, 0.5 mm wall thickness; Hilgenberg, Germany) were used to pull patch pipettes. Pipettes with a resistance of 5-10 MΩ were used and series resistance of 10-50 MΩ was compensated by bridge balance. Patch pipettes were filled with an internal solution containing (in mM) for EPSP-measurements: 132K-gluconate, 20KCL, 2MgCl2, 10Hepes, 0.1EGTA, 4 Na2ATP, 0.3NaGTP. PH was adjusted to 7.2 with KOH. For current measurements: 135Csgluconate, 2CsCl, 5 QX314, 10 Hepes, 10EGTA, 2MgCl2, 2Na2ATP, 2TEACI, pH was adjusted to 7.2 with HCl. Osmolarity (280-300 mosmol/1) was controlled at the beginning of each experimental day with Osmomat (Gonotec GmbH, Germany).
A stimulation pipette (patch pipette with 1-3 MΩ resistance when filled with internal solution) was placed superficially in the stratum radiatum of the CA1 region in approximately […] distance to the pyramidal cell layer. Subthreshold excitatory postsynaptic potentials (EPSPs, 2 7 mV) were evoked by Schaffer collateral stimulation with voltage pulses of 10-80 V (frequency of 0.1 Hz, duration of 200 μs) using a stimulus isolator (Model 2100 Isolated pulse stimulator, Carlsborg, U.S.A.). Resting membrane potentials were between −75 and −65 mV and holding potential was −70 mV. 50 ms current test pulses (leading to 5-10 mV hyperpolarization) were applied to control input and series resistances after every 10th EPSP. EPSPs were combined with APs triggered by short (3 ms) current application of 900 pA via the patch-clamp electrode. EPC-10 amplifiers (HEKA, Germany) were used and signals were filtered at 5 kHz. Patchmaster NEXT software (Version 1.2, HEKA, Germany) was used for data acquisition and experiments were performed at room temperature.
aLTP: Five EPSPs and five postsynaptic APs were paired at 100 Hz with a 5 ms delay (AP after EPSP). Five of these bursts of synchronized EPSP→AP pairs were applied at theta frequency (5 Hz), followed by an interval of 10 sec and 4 more theta blocks, resulting in 125 EPSP/AP pairings.
aLTD: 360 postsynaptic APs were pared with 360 EPSPs with a delay of 20-30 ms between each AP/EPSP pairing at a frequency of 1 Hz. 1 Hz LTD: 600 EPSPs were elicited at a frequency of 1 Hz whilst CA1 pyramidal cell membrane potential was hold at −60 mV.
Long-term plasticity or molecular analyses were assessed as described above after the induction phase of the CDM and the specific treatment.
EPSP measurement: For baseline measurement, the mean amplitudes of 30 consecutive EPSPs before the induction protocol were calculated. 25 min after LTP induction the mean amplitude of 30 consecutive EPSPs was calculated and compared to the baseline of the same measurement. Changes of EPSP amplitudes were expressed as percentages of the baseline measurement and analysed for each experimental group applying a two-tailed Wilcoxon test. The differences between separate experimental groups were assessed using the Mann-Whitney test, not assuming normal distribution. […]

[2] = Side effects in in vivo experiments; set-up: species or system mice
[3] = system: SOM-dependent feedback loop, CA1 PCs; test: Feedback loop-activating protocol (FLAP) in CA1 PCs; assay type: cell-based, mice
[4] = molecular target: recombinant GluN2D-containing receptors (Rattus norvegicus, UniProt Q62645); settings: recombinant GluN2D-containing receptors expressed in mammalian cells; cited from earlier work
recombinant GluN2D-containing receptors, sequence (Q62645 28-1323, other chains not shown): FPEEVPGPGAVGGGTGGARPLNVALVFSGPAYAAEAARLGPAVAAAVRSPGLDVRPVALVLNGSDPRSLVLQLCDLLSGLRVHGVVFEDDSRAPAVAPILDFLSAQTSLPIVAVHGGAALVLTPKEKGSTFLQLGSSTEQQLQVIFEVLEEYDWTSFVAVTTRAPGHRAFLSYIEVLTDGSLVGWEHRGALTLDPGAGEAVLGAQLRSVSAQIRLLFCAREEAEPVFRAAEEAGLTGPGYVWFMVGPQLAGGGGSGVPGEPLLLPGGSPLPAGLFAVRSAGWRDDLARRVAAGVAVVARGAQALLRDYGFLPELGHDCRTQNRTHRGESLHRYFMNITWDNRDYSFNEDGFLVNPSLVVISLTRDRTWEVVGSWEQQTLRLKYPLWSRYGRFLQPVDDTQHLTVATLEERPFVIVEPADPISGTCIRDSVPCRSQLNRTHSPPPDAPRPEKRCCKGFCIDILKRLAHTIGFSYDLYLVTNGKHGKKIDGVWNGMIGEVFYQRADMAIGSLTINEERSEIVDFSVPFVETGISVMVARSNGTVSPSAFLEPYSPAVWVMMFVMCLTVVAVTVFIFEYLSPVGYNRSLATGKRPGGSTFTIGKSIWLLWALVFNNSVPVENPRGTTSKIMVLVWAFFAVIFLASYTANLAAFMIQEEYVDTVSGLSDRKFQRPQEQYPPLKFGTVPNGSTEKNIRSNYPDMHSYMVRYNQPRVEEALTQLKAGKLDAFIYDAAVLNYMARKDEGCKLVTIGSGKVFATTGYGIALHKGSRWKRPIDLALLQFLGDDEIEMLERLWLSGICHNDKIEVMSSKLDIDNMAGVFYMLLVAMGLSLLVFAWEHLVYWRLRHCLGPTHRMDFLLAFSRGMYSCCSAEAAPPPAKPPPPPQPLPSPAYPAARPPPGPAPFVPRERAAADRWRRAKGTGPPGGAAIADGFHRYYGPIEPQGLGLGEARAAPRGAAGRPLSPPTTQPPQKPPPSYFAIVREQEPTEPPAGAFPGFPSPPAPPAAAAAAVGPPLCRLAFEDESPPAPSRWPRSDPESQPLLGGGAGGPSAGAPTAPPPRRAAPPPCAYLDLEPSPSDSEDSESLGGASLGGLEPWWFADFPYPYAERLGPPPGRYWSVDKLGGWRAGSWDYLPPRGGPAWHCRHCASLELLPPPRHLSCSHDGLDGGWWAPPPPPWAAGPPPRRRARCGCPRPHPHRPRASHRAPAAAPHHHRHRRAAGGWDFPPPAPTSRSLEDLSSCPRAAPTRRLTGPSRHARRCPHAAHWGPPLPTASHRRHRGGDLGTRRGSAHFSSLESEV

[5] = R,S-ketamine injected shortly before each swim session in the CDM

| Structure (SMILES) | sucrose preference (CDM mice; NAB (5 μM as printed) injection) | stress-induced LTP blockade, reversal ([1]; CDM mice, high dose: 10 mg/kg, 10 μM, 10 mg/kg) | stress-induced LTP blockade, reversal ([1]; CDM mice, high dose: 10 mg/kg, 10 μM, listed as NAB, 10 mg/kg) | stress-induced LTP blockade, reversal ([1]; CDM mice, low dose: 5 mg/kg, 5 μM) | EPSP slope and decay changes found in CDM ([1]; CDM mice, previous NAB-14 treatment) | side effects [2] | EPSP amplitude in the absence of AP bursts [3] | IC50 [4] | sucrose preference (CDM mice; single R,S-ketamine injection, hydrochloride) | stress-induced facilitation of LTD (aLTD, EPSP amplitude min 25 to 30) ([1]; CDM mice, R,S-ketamine injection i.p. after CDM induction, hydrochloride) | stress-induced blockade of LTP inducibility (aLTP, EPSP amplitude min 25 to 30) ([1]; CDM mice, single R,S-ketamine injection i.p. after CDM induction, hydrochloride) | stress-induced aLTD facilitation [1, 5] | stress-induced aLTP blockade [1, 5] |
| --- | --- | --- | --- | --- | --- | --- | --- | --- | --- | --- | --- | --- | --- |
| CCN(CC)C(=O)Oc1ccc(C(=O)Nc2cccc3cc[nH]c23)cc1 [NAB-14] | fully reestablished | completely; also recorded: fully reversed | fully rehabilitated LTP inducibility | partially | effectively be reversed; also recorded: completely reversing slope increase and decay changes | did not show side effects | neither NAB14 nor diazepam wash-in significantly altered the EPSP amplitude; also recorded: no significant pre/post changes | 580 nM | – | – | – | – | – |
| CNC1(c2ccccc2Cl)CCCCC1=O (stereo not shown) [R,S-ketamine, R,S-Ketamine hydrochloride] | – | – | – | – | – | – | – | – | renormalized; also recorded: completely reestablished | fully restored; also recorded: reversed this inducibility | fully restored; also recorded: completely reestablishing stress-induced changes | weaker effect | prevented the stress-induced aLTP blockade |
